Where two headings read alike, the source gives them in different places.
Assays:
human CTPS1 = molecular target: T1, human CTPS1 (Homo sapiens, UniProt P17812); test: Human CTPS1 enzyme inhibition (ADP-Glo Max assay); assay type: biochemical; settings: read-out: CTPS1 (Human CTPS1 Enzyme Inhibition data grouped by potency range, IC50)
T1 construct: purchased Proteros biostructures GmbH
T1 sequence (P17812 1-591): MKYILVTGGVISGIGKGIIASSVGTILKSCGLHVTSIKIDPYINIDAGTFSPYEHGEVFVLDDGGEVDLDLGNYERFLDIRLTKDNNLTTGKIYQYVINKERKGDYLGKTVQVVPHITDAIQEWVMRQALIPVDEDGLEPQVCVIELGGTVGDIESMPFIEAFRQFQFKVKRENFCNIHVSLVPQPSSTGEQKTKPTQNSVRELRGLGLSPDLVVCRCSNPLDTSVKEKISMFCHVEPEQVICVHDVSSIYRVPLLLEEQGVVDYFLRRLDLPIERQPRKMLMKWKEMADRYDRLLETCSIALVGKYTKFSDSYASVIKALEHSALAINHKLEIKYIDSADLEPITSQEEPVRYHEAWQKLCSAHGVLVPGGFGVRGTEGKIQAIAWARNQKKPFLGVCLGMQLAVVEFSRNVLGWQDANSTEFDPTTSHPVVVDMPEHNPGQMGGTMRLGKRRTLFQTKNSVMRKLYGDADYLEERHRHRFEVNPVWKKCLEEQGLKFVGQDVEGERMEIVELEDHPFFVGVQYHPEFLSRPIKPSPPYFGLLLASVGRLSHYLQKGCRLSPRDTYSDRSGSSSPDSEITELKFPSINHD
Method in brief: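 Full-length FLAG-His-tagged human CTPS1 and compound were preincubated 10 min at 25 °C in 50 mM Tris pH 8.0, 10 mM MgCl2, 0.01% Tween-20, 2 mM L-cysteine. Substrate mix: ATP 0.31 mM, GTP 0.034 mM, UTP 0.48 mM, glutamine 0.186 mM; linear-phase reaction at 25 °C. ADP-Glo Max luminescence; IC50 from inhibition curve.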

human CTPS1 versus CTPS2 = test: Human CTPS1 versus CTPS2 selectivity assessment by RapidFire/MS analysis; assay type: biochemical
Procedure: Biological Example 2—RapidFire/MS-Based Enzyme Selectivity Assays.
Human CTPS1 Versus CTPS2 Selectivity Assessment by RapidFire/MS Analysis.
The enzyme inhibitory activities against each target isoform of interest may be determined for the compounds of the invention using an optimised RapidFire high-throughput mass spectrometry (RF/MS) assay format. RF/MS assays for both human CTPS1 and CTPS2 may be performed in assay buffer consisting of 50 mM HEPES (Merck), 20 mM MgCl2, 5 mM KCl, 1 mM DTT, 0.01% Tween-20, pH to 8.0 accordingly. Human full-length active C-terminal FLAG-His-tag CTPS1 (UniProtKB-P17812, CTPS[1-591]-[…]) may be obtained from Proteros biostructures GmbH. Human full length active C-terminal FLAG-His-Avi tagged CTPS2 (UniProtKB-Q9NRF8, CTPS2 [1-586]-[…]) may be obtained from Harker Bio.
Human CTPS (1 or 2) protein may be prepared in 1× assay buffer to the final working protein concentration required for the reaction. A 2 uL volume per well of 2×CTPS (1 or 2) protein may be mixed with 40 nL of compound using acoustic (ECHO) delivery and incubated for 10 minutes at 25° C. Each isoform enzymatic reaction may be subsequently initiated by addition of 2 uL per well of a 2× substrate mix in assay buffer. For hCTPS1: ATP (0.3 mM), UTP (0.2 mM), GTP (0.07 mM) and L-glutamine (0.1 mM). For hCTPS2: ATP (0.1 mM), UTP (0.04 mM), GTP (0.03 mM) and L-glutamine (0.1 mM). Each mixture may be incubated for an appropriate amount of time per isoform within the determined linear phase of the reaction at 25° C. A 60 uL volume of stop solution (1% formic acid with 0.5 uM ^13C9-^15N3-CTP in H2O) may be added and the plate immediately heat-sealed and centrifuged for 10 minutes at 4,000 rpm. Following centrifugation, plates may be loaded onto the Agilent RapidFire microfluidic solid phase extraction system coupled to an AP14000 triple quadrupole mass spectrometer (RF/MS) for analysis.
In all cases, the enzyme converts UTP to CTP. Highly specific and sensitive multiple reaction monitoring (MRM) MS methods may be optimised for the detection of the enzymatic reaction product, CTP, and the stable isotope labelled product standard ^13C9-^15N3-CTP. Readout for data analysis may be calculated as the ratio between the peak area of the product CTP and the internal standard ^13C9-^15N3-CTP. For data reporting, the following equation may be used: […]
For each screening plate, the means of the negative (DMSO) and positive control values were used for the calculation of the respective assay window (S/B) and Z′ values. The median of the respective control values was used for calculation of percent inhibition according to the following equation: […]
Percentage inhibition was then plotted against compound concentration, and the 50% inhibitory concentration (IC50) was determined from the resultant concentration-response curve.
Fold selectivity between CTPS1 and CTPS2 was subsequently calculated according to the following equation: […]

For `CCOc1cncc(-c2ccc(NC(=O)C3(c4ccnc(NS(=O)(=O)C5CC5)n4)CCC4(CC3)OCCO4)nc2)n1` [Example P244, 8-(2-(cyclopropanesulfonamido)pyrimidin-4-yl)-N-(5-(6-ethoxypyrazin-2-yl)pyridin-2-yl)-1,4-dioxaspiro[4.5]decane-8-carboxamide], the IC50 (human CTPS1; Table 24, ADP-Glo Max assay) was at most 100 nM and the “Selectivity (fold selectivity between CTPS1 and CTPS2)” value (human CTPS1 versus CTPS2; Table 27) was “+++ (>60 fold (+++))”.

For `CCOc1cncc(-c2ccc(NC(=O)C(C)(C)c3ccnc(NS(=O)(=O)CC)n3)cc2)n1` [Example P74], the IC50 (human CTPS1; Table 23, ADP-Glo Max assay) was 100 to 1000 nM and the “Selectivity (fold selectivity between CTPS1 and CTPS2)” value (human CTPS1 versus CTPS2; Table 26) was “++ (>30-60 fold (++))”.

With `CCOc1cncc(-c2ccc(NC(=O)Cc3ccnc(NS(=O)(=O)C4CC4)n3)cc2)n1` [Example P18, 2-(2-(Cyclopropanesulfonamido)pyrimidin-4-yl)-N-(4-(6-ethoxypyrazin-2-yl)phenyl)acetamide] the IC50 (human CTPS1; Table 23, ADP-Glo Max assay) was at most 100 nM and the “Selectivity (fold selectivity between CTPS1 and CTPS2)” value (human CTPS1 versus CTPS2; Table 26) was “++ (>30-60 fold (++))”.

With `CCOc1cncc(-c2ccc(NC(=O)C3(c4ccnc(NS(=O)(=O)C5CC5)n4)CCCC3)cc2)n1` [Example P2, 1-(2-(Cyclopropanesulfonamido)pyrimidin-4-yl)-N-(4-(6-ethoxypyrazin-2-yl)phenyl)cyclopentanecarboxamide] the IC50 (human CTPS1; Table 23, ADP-Glo Max assay) was at most 100 nM and the “Selectivity (fold selectivity between CTPS1 and CTPS2)” value (human CTPS1 versus CTPS2; Table 26) was “+++ (>60 fold (+++))”.

For `CCOc1cncc(-c2ccc(NC(=O)C3(c4ccnc(NS(=O)(=O)C5CC5)n4)CCC(=O)CC3)nc2)n1` [Example P226, 1-(2-(Cyclopropanesulfonamido)pyrimidin-4-yl)-N-(5-(6-ethoxypyrazin-2-yl)pyridin-2-yl)-4-oxocyclohexanecarboxamide], the IC50 (human CTPS1; Table 24, ADP-Glo Max assay) was at most 100 nM and the “Selectivity (fold selectivity between CTPS1 and CTPS2)” value (human CTPS1 versus CTPS2; Table 27) was “+++ (>60 fold (+++))”.

In the case of `CCOc1cncc(-c2ccc(NC(=O)C3(c4ccnc(NS(=O)(=O)C5CC5)n4)CCN(S(C)(=O)=O)CC3)nc2)n1` [Example P251], the IC50 (human CTPS1; Table 24, ADP-Glo Max assay) is reported as at most 100 nM and the “Selectivity (fold selectivity between CTPS1 and CTPS2)” value (human CTPS1 versus CTPS2; Table 27) is reported as “+++ (>60 fold (+++))”.

In the case of `CCOc1cncc(-c2ccc(C(=O)NCc3ccnc(NS(=O)(=O)C4CC4)n3)cc2)n1` [Example P118], the IC50 (human CTPS1; Table 23, ADP-Glo Max assay) is reported as at most 100 nM and the “Selectivity (fold selectivity between CTPS1 and CTPS2)” value (human CTPS1 versus CTPS2; Table 26) is reported as “+++ (>60 fold (+++))”.

With `CCOc1cncc(-c2cnc(NC(=O)C(CC)c3ccnc(NS(=O)(=O)C4CC4)n3)c(C)c2)n1` (centres unmarked) [Example P155] the IC50 (human CTPS1; Table 23, ADP-Glo Max assay) was at most 100 nM and the “Selectivity (fold selectivity between CTPS1 and CTPS2)” value (human CTPS1 versus CTPS2; Table 26) was “+ (2-30 fold (+))”.

`CCOc1cncc(-c2ccc(NC(=O)C(F)(CC)c3ccnc(NS(C)(=O)=O)n3)nc2)n1` (centres unmarked) [Example P151] was tested, and the IC50 (human CTPS1; Table 23, ADP-Glo Max assay) was at most 100 nM and the “Selectivity (fold selectivity between CTPS1 and CTPS2)” value (human CTPS1 versus CTPS2; Table 26) was “+++ (>60 fold (+++))”.

`CCOc1cncc(-c2ccc(NC(=O)C3(c4ccnc(NS(=O)(=O)C5CC5)n4)CC3)cc2)n1` [Example P83] was tested, and the IC50 (human CTPS1; Table 23, ADP-Glo Max assay) was at most 100 nM and the “Selectivity (fold selectivity between CTPS1 and CTPS2)” value (human CTPS1 versus CTPS2; Table 26) was “+++ (>60 fold (+++))”.

With `CCOc1cncc(-c2ccc(NC(=O)C3(c4ccnc(NS(=O)(=O)C5CC5)n4)CCOCC3)c(F)c2)n1` [Example P143] the IC50 (human CTPS1; Table 23, ADP-Glo Max assay) was at most 100 nM and the “Selectivity (fold selectivity between CTPS1 and CTPS2)” value (human CTPS1 versus CTPS2; Table 26) was “+++ (>60 fold (+++))”.

For `CCOc1cncc(-c2ccc(NC(=O)C3(c4ccnc(NS(=O)(=O)CC#N)n4)CCOCC3)nc2)n1` [Example P287, 4-(2-((cyanomethyl)sulfonamido)pyrimidin-4-yl)-N-(5-(6-ethoxypyrazin-2-yl)pyridin-2-yl)tetrahydro-2H-pyran-4-carboxamide], the IC50 (human CTPS1; Table 25, compounds where R1 is substituted by CN) was at most 100 nM and the “CTPS1 (Selectivity data)” value (human CTPS1 versus CTPS2; Table 28, compounds where R1 is substituted by CN) was “+++ (>60 fold (+++))”.

For `CCOc1cncc(-c2ccc(NC(=O)C3(c4ccnc(NS(=O)(=O)C5CC5)n4)CCC(O)CC3)nc2)n1` (single isomer, unassigned) [Example P228, 1-(2-(cyclopropanesulfonamido)pyrimidin-4-yl)-N-(5-(6-ethoxypyrazin-2-yl)pyridin-2-yl)-4-hydroxycyclohexanecarboxamide], the IC50 (human CTPS1; Table 24, ADP-Glo Max assay) was 1000 to 10000 nM and the “Selectivity (fold selectivity between CTPS1 and CTPS2)” value (human CTPS1 versus CTPS2; Table 27) was “+ (2-30 fold (+))”.

— US20230002352A1, “SULFONAMIDE DERIVATIVES AS CTPS1 INHIBITORS” (Step Pharma S.A.S., priority 2019, published 2023)
